The values that follow come from patent US20120178765A1, “NOVEL GLUCOKINASE ACTIVATORS AND PROCESSES FOR THE PREPARATION THEREOF” (YUHAN CORPORATION, priority 2009, published 2012).

For the test, the target named is T1, Glucokinase (Homo sapiens, UniProt P35557).
T1 construct: purchased ProteinOne Inc
T1 sequence (P35557 1-465): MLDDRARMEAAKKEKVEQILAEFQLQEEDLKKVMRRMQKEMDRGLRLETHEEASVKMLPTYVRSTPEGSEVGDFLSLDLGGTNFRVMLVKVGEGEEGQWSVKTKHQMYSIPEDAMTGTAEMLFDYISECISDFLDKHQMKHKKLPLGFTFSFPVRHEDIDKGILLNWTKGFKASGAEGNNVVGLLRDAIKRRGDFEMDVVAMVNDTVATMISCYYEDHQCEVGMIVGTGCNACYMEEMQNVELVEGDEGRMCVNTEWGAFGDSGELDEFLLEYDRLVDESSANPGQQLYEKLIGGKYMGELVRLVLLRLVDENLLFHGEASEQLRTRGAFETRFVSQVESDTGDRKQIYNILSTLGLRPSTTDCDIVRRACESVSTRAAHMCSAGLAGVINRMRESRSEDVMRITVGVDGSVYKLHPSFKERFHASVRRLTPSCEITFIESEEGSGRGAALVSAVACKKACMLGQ
Put plainly: Glucokinase activation assay (NADPH absorbance at 340 nm). The class given is biochemical. Particulars: glucokinase (ProteinOne Inc.), 5 mM D(+)-glucose, 24° C., 90 minutes. The method, then: The amounts of glucokinase activation were determined by measuring the levels of NADPH (the final metabolite of glucose through glucokinase-mediated phospho-rylation) and then calculating to glucokinase activities.
Glucokinase (ProteinOne Inc.) was added, in the concentration of 100 ng/uL, to a enzyme-reaction medium (25 mM HEPES pH 7, 25 mM KCL, 1 mM MgCl, 5 mM D(+)-glucose, 1 mM ATP, 1 mM NADP, 1 mM DTT, and 2.5 u/mL G6PDH). Each compound in predetermined concentrations was added to the enzyme-reaction medium and then absorbance (First Absorbance) was measured at 340 nm of wavelength. After measuring the first absorbance, each reaction mixture was incubated at 24° C. for 90 minutes and then absorbance (Second Absorbance) was re-measured at 340 nm of wavelength. Using changes between First Absorbance and Second Absorbance, glucokinase activity was calculated. In the calculation, a maximum activity of the test compound (Emax), in comparison to the control group (no treatment of compound) was determined and then EC50 was calculated using the software for statistical analysis “Prism”, based on the activity-changes according to concentrations of the test compounds.
The amounts of glucokinase activation of the compounds of Comparative Examples 1 and 2 were determined, in accordance with the same procedures as in Test Example 1.

For orientation: EC50 means the concentration that produces a half-maximal response. Higher therefore signals lower potency in that assay. In the case of `CC(C)COc1cc(/C=C/c2cc(F)ccc2F)cc(C(=O)Nc2nccs2)c1` [Example 71, 3-[trans-2-(2,5-difluorophenyl)vinyl]-5-isobutoxy-N-(thiazol-2-yl)-benzamide], the EC50 came to 84.8 nM.

The molecule “3-[trans-2-(2,4-difluorophenyl)vinyl]-5-(2-methoxy-(1S)-methyl-ethoxy)-N-(5-fluorothiazol-2-yl)-benzamide [Example 25]” yielded an EC50 of 70.2 nM.

The molecule “3-[trans-2-(2,5-difluorophenyl)vinyl]-5-(2-methoxy-(1S)-methyl-ethoxy)-N-(thiazol-2-yl)-benzamide [Example 11]” had an EC50 of 30.9 nM.

As to “3-[2-(4-fluorophenyl)ethyl]-5-(2-methoxy-(1S)-methyl-ethoxy)-N-(pyrazin-2-yl)-benz amide [Example 108]”, the EC50 stood at 465 nM.

On to “3-{2-[3-(2-(thiophen-2-yl)acetylamino)phenyl]ethyl}-5-(2-methoxy-(1S)-methyl-ethoxy)-N-(thiazol-2-yl)-benzamide [Example 129]”, for which the EC50 came to 271 nM.

With “3-{2-[4-(3-phenyl-ureido)phenyl]ethyl}-5-(2-methoxy-(1S)-methyl-ethoxy)-N-(thiazol-2-yl)-benzamide [Example 145]”, the midpoint of the response, the EC50, lay at 319 nM.

On to “3-[trans-2-(3-nitrophenyl)vinyl]-5-(2-methoxy-(1S)-methyl-ethoxy)-N-(5-fluorothiazol-2-yl)-benzamide [Example 20]”, for which a half-maximal response (EC50) required 123 nM.

In turn, `CCOC(=O)Nc1ccccc1CCc1cc(O[C@@H](C)COC)cc(C(=O)Nc2nccs2)c1` [Example 117, 3-{2-[2-(carbamic acid ethyl ester)phenyl]ethyl}-5-(2-methoxy-(1S)-methyl-ethoxy)-N-(thiazol-2-yl)-benzamide] showed a concentration for a half-maximal effect (EC50) of 229 nM.

As for “3-[trans-2-(4-bromophenyl)vinyl]-5-(2-methoxy-(1S)-methyl-ethoxy)-N-(pyrazin-2-yl)-benzamide [Example 60]”, the EC50 was found to be 397 nM. Compared with the last molecule, the EC50 is about 1.7-fold higher.

With `COC[C@H](C)Oc1cc(/C=C/c2ccccc2F)cc(C(=O)Nc2ccc(C(=O)O)cn2)c1` [Example 76, 3-[trans-2-(2-fluorophenyl)vinyl]-5-(2-methoxy-(1S)-methyl-ethoxy)-N-(nicotinic acid-6-yl)-benzamide], the EC50 stood at 55.8 nM.

Molecule `CC(C)Oc1cc(/C=C/c2ccccn2)cc(C(=O)Nc2ccc(C(=O)O)cn2)c1` [Comparative Example 1, reference compound] registered an EC50 of 2450 nM.

`CCOC(=O)Nc1cccc(CCc2cc(O[C@@H](C)COC)cc(C(=O)Nc3nccs3)c2)c1` [Example 122, 3-{2-[3-(carbamic acid ethyl ester)phenyl]ethyl}-5-(2-methoxy-(1S)-methyl-ethoxy)-N-(thiazol-2-yl)-benzamide] displayed an EC50 of 205 nM.

The molecule “3-[trans-2-(2,5-difluorophenyl)vinyl]-5-(2-methoxy-(1S)-methyl-ethoxy)-N-(5-fluorothiazol-2-yl)-benzamide [Example 26]” registered an EC50 of 46.5 nM. Compared with the last molecule, the EC50 is about 4.4-fold lower.

For the molecule “3-{2-[3-(4-fluorobenzoylamino)phenyl]ethyl}-5-(2-methoxy-(1S)-methyl-ethoxy)-N-(thiazol-2-yl)-benzamide [Example 125]”, the EC50 came to 340 nM. Against the preceding molecule, the EC50 is about 7.3-fold higher.

As for “3-[trans-2-(2,6-difluorophenyl)vinyl]-5-(2-methoxy-(1S)-methyl-ethoxy)-N-(pyrazin-2-yl)-benzamide [Example 58]”, the concentration giving a half-maximal response (EC50) came out at 212 nM.

`COC[C@H](C)Oc1cc(CCc2ccccc2OC)cc(C(=O)Nc2ccn(C)n2)c1` [Example 93, 3-[2-(2-methoxyphenyl)ethyl]-5-(2-methoxy-(1S)-methyl-ethoxy)-N-(1-methyl-1-pyrazol-3-yl)-benzamide] gave an EC50 of 135 nM.

In turn, “3-[2-(3-acetylaminophenyl)ethyl]-5-(2-methoxy-(1S)-methyl-ethoxy)-N-(thiazol-2-yl)-benzamide [Example 118]” gave an EC50 of 208 nM.

Molecule “3-[trans-2-(2,5-difluorophenyl)vinyl]-5-(2-methoxy-(1S)-methyl-ethoxy)-N-(pyrazin-2-yl)-benzamide [Example 57]” came in with an EC50 of 283 nM.

“3-[trans-2-(2,5-difluorophenyl)vinyl]-5-(2-methoxy-(1S)-methyl-ethoxy)-N-(1-methyl-1H-pyrazol-3-yl)-benzamide [Example 36]” came in with an EC50 of 200 nM.

Regarding “3-[2-(3,5-dimethoxyphenyl)ethyl]-5-(2-methoxy-(1S)-methyl-ethoxy)-N-(1-methyl-1H-pyrazol-3-yl)-benzamide [Example 99]”, the EC50 is 117 nM.

Consider “3-[2-(4-acetylaminophenyl)ethyl]-5-(2-methoxy-(1S)-methyl-ethoxy)-N-(thiazol-2-yl)-benzamide [Example 132]”, for which the EC50 is 354 nM. Compared with the last molecule, the EC50 is about 3-fold higher.

Take `COC[C@H](C)Oc1cc(/C=C/c2ccccc2F)cc(C(=O)Nc2nccs2)c1` (stereo in doubt) [Example 6, 3-[trans-2-(2-fluorophenyl)vinyl]-5-(2-methoxy-(1S)-methyl-ethoxy)-N-(thiazol-2-yl)-benzamide]: the EC50 is 38.5 nM.

Molecule `COC[C@H](C)Oc1cc(/C=C/c2c(F)cccc2F)cc(C(=O)Nc2nccs2)c1` [Example 12, 3-[trans-2-(2,6-difluorophenyl)vinyl]-5-(2-methoxy-(1S)-methyl-ethoxy)-N-(thiazol-2-yl)-benzamide] returned an EC50 of 14.7 nM.

“3-[2-(2,4-difluorophenyl)ethyl]-5-(2-methoxy-(1S)-methyl-ethoxy)-N-(thiazol-2-yl)-benzamide [Example 85]” yielded an EC50 of 9.5 nM.

The molecule “3-[trans-2-(2-nitrophenyl)vinyl]-5-(2-methoxy-(1S)-methyl-ethoxy)-N-(1-methyl-1H-pyrazol-3-yl)-benzamide [Example 32]” gave an EC50 of 284 nM.

“3-[trans-2-(4-fluorophenyl)vinyl]-5-(2-methoxy-(1S)-methyl-ethoxy)-N-(thiazol-2-yl)-benzamide [Example 8]”: the EC50 turned out to be 86.4 nM.

Regarding “3-[2-(4-aminophenyl)ethyl]-5-(2-methoxy-(1S)-methyl-ethoxy)-N-(thiazol-2-yl)-benzamide [Example 92]”, it took 113 nM to reach a half-maximal effect (EC50).

With “3-[trans-2-(2-chlorophenyl)vinyl]-5-(2-methoxy-(1S)-methyl-ethoxy)-N-(pyrazin-2-yl)-benzamide [Example 53]”, the EC50 came to 503 nM.

On to “3-[trans-2-(4-methoxyphenyl)vinyl]-5-(2-methoxy-(1S)-methyl-ethoxy)-N-(pyrazin-2-yl)-benzamide [Example 49]”, for which the EC50 was found to be 381 nM. This EC50 and that of the molecule before are within 1.5-fold of each other.

The molecule `COC[C@H](C)Oc1cc(/C=C/c2cccc([N+](=O)[O-])c2)cc(C(=O)Nc2ccn(C)n2)c1` [Example 38, 3-[trans-2-(3-nitrophenyl)vinyl]-5-(2-methoxy-(1S)-methyl-ethoxy)-N-(1-methyl-H-pyrazol-3-yl)-benzamide] returned a concentration giving a half-maximal response (EC50) of 239 nM.

In turn, `COC[C@H](C)Oc1cc(CCc2ccc(NC(=O)c3ccncc3)cc2)cc(C(=O)Nc2nccs2)c1` [Example 142, 3-[2-(4-isonicotinamidephenyl)ethyl]-5-(2-methoxy-(1S)-methyl-ethoxy)-N-(thiazol-2-yl)-benzamide] had an EC50 of 357 nM.

Consider “3-[trans-2-(2-methoxyphenyl)vinyl]-5-(2-methoxy-(1S)-methyl-ethoxy)-N-(thiazol-2-yl)-benzamide [Example 16]”, for which the EC50 was found to be 8.4 nM. This EC50 is about 42-fold lower than that of the molecule before.

On to `Cc1ccc(/C=C/c2cc(OCC(C)C)cc(C(=O)Nc3nccs3)c2)cc1` [Example 1, 3-[trans-2-(p-tolyl)vinyl]-5-isobutoxy-N-(thiazol-2-yl)-benzamide], for which the EC50 was determined as 164 nM.

“3-[trans-2-(2-methoxyphenyl)vinyl]-5-(2-methoxy-(1S)-methyl-ethoxy)-N-(5-fluorothiazol-2-yl)-benzamide [Example 82]” gave an EC50 of 91.8 nM.

On to “3-[trans-2-(3-nitrophenyl)vinyl]-5-(2-methoxy-(1S)-methyl-ethoxy)-N-(thiazol-2-yl)-benzamide [Example 14]”, for which the midpoint of the response, the EC50, lay at 19.4 nM. This EC50 lies about 4.7-fold lower than the previous one.

`COC[C@H](C)Oc1cc(CCc2c(F)cccc2F)cc(C(=O)Nc2ccc(C(=O)O)cn2)c1` [Example 109, 3-[2-(2,6-difluorophenyl)ethyl]-5-(2-methoxy-(1S)-methyl-ethoxy)-N-(nicotinic acid-6-yl)-benzamide] showed an EC50 of 208 nM. This EC50 is about 11-fold higher than that of the molecule before.

As to `COC[C@H](C)Oc1cc(/C=C/c2ccccc2F)cc(C(=O)Nc2ccc(C(=O)OC)cn2)c1` [Example 64, 3-[trans-2-(2-fluorophenyl)vinyl]-5-(2-methoxy-(1S)-methyl-ethoxy)-N-(nicotinic acid-3-methyl ester-6-yl)-benzamide], the EC50 turned out to be 159 nM.
